According to patent US4605739A, “Benzoyl indolecarboxylates” (Kowa Co., Ltd., priority 1983, dated 1986):

Target: chymotrypsin (Bos taurus, UniProt P00766)
Test: chymotrypsin inhibitory effect (procedure of Muramatsu et al; acetyl-L-tyrosine ethyl ester substrate, Hestrin method)
Format: biochemical
Details: 10 min preincubation, pH 8.0 Tris-HCl, 37° C., 30 min, absorbance 530 nm, read-out: Inhibitory Activity, 50% Inhibitory Concentration
Experimental: Some selected compounds of this invention were tested with respect to their chymotrypsin inhibitory effects.
The tests were conducted in accordance with the procedure of Muramatsu et al [The Journal of Biochemistry, 62, 408 (1967)]. A mixture was prepared which was made up of 0.1 ml of a dimethylsulfoxide solution of each test compound, 0.1 ml of water and 0.1 ml of a buffer solution containing 10 μg/ml of chymotrypsin (0.1M Tris-HCl buffer, pH 8.0). The mixture was incubated for 10 minutes, followed by addition of 0.2 ml of a buffer solution containing 25 mM of an ethyl ester of acetyl-L-tyrosine. The resulting mixture was reacted at 37° C. for 30 minutes. The remaining substrate was caused to develop a color by the Hestrin method, whereupon its absorbance was measured at 530 nm. For comparative purposes, use was made of tosylphenylalanine chloromethyl ketone (TPCK) which is known as a good inhibitor for chymotrypsin.

| IC50 | SMILES |
| --- | --- |
| 300 nM | COc1ccc2c(c1)c(CC(=O)Oc1ccc(C(=O)N3CCN(C(C)C)CC3)cc1)c(C)n2C [Example 2] |
| 400 nM | COc1ccc2[nH]c(C)c(CC(=O)Oc3ccc(C(=O)N4CCN(C(C)C)CC4)cc3)c2c1 [Example 3] |
| 500 nM | Cc1ccc2[nH]c(C)c(CC(=O)Oc3ccc(C(=O)N4CCN(C(C)C)CC4)cc3)c2c1 [Example 4] |
| 600 nM | CCCCc1ccc2[nH]c(C)c(CC(=O)Oc3ccc(C(=O)N4CCN(C(C)C)CC4)cc3)c2c1 [Example 5] |
| 80 nM | COc1ccc2[nH]cc(CC(=O)Oc3ccc(C(=O)N4CCN(C(C)C)CC4)cc3)c2c1 [Example 7] |
| 700 nM | Cc1[nH]c2ccccc2c1CC(=O)Oc1ccc(C(=O)N2CCN(C(C)C)CC2)cc1 [Example 10] |
| 6000 nM | CC(C)N1CCN(C(=O)c2ccc(OC(=O)Cc3c[nH]c4ccccc34)cc2)CC1 [Example 14] |
| 500000 nM | Cc1ccc(S(=O)(=O)NC(Cc2ccccc2)C(=O)CCl)cc1 (centres unmarked) [TPCK, tosylphenylalanine chloromethyl ketone, reference compound] |
